# B1: Noggin: secreted protein that binds and inactivates TGF-beta superfamily signaling proteins (protein, UniProt Q13253 28-232, looked up)
# Noggin: QHYLHIRPAPSDNLPLVDLIEHPDPIFDPKEKDLNETLLRSLLGGHYDPGFMATSPPEDRPGGGGGAAGGAEDLAELDQLLRQRPSGAMPSEIKGLEFSEGLAQGKKQRLSKKLRRKLQMWLWSQTFCPVLYAWNDLGSRFWPRYVKVGSCFSKRSCSVPEGMVCKPSKSVHLTVLRWRCQRRGGQRCGWIPIQYPIISECKCSC
# Legend:
# Human ESCs (H9) [1] = assay: Mesoderm formation during cardiac differentiation of hESCs (brachyury (T)+ cells); format: cell-based
# From the text: (§1) Human ESCs (H9) were differentiated to cardiac lineage by treatment with Activin A, BMP4 and bFGF (ABF, control group) for two days (day 1-2) Mesoderm formation was identified by brachyury (T)+ cells, and the ensuing pan-cardiac myocyte lineage was marked by cTnT+ cells. In control, this process was highly efficient, reaching 75% and 82%, respectively. […] In contrast, late (day 6-9) activation of RA (Late-RA) led to >90% cTnT+ population. […] Furthermore, the Late-RA cardiomyocytes expressed higher transcript and protein levels of the first heart field (FHF) markers, NKX2.5, TBX5 and HCN4.
# Human ESCs (H9) [2] = assay: Pan-cardiac myocyte lineage formation from hESCs (cTnT+ cells); format: cell-based
# From the text: as §1
# Human ESCs (H9) [3] = assay: Chamber and heart field marker expression in hESC-derived cardiomyocytes; format: cell-based
# From the text: IRX4 and HRT2 are ventricular marker. CoupTFII is an atrial marker. NKX2.5, TBX5, HCN4 are markers of the first heart field, which becomes the left ventricular and atrial cardiac myocytes.
# Is11, Mef2c, Fgf8, and Fgf10 are markers of the second heart field, which become right ventricular cardiac myocytes.
# as §1
# Reported are specific and robust derivation of the left ventricular-like cells by activating RA signaling during the late stage of hESC differentiation.
# hESCs = assay: Differentiation protocols of hESCs to cardio-like cell subtypes (AFB, AFB+RA, Ri+AFB+RA); format: cell-based, human
# Method: To create the cardio-like cells from hESCs, at the early stage (day 0-3), hESCs were treated with ActivinA, bFGF and BMP4 to induce mesoderm and cardiac mesoderm cells generation. […] Wnt inhibitor promoted cardiac progenitor cells into cardio-like cells during day 5-11.
# To create atrial-like cells from hESCs, at the early stage (day 0-3), hESCs were treated with ActivinA, bFGF and BMP4 to induce mesoderm and cardiac mesoderm cells generation. […] Wnt inhibitor promoted differentiation of cardiac progenitor cells into cardio-like cells during day 5-11.
# To create first heart field (FHF) derived left ventricular-like cells from hESCs, at the early stage (day 0-3), hESCs were treated with ActivinA, bFGF, BMP4 and additional short time (day 0-1) treatment of BMS4.93(Ri) to induce mesoderm and cardiac mesoderm cells generation. […] Wnt inhibitor promoted cardiac progenitor cells into cardiomyocytes during day 5-11.
# [4] = early inhibition of RA signaling
# [5] = Late-RA cardiomyocytes compared to control
molecule,measurement,setting,value
"CC1(C)CC=C(C#Cc2ccccc2)c2cc(/C=C/c3ccc(C(=O)O)cc3)ccc21 [BMS-189493, (E)-4-(2-(5,5-dimethyl-8-(phenylethynyl)-5,6-dihydronaphthalen-2-yl)vinyl)benzoic acid]",Mesoderm induction,Human ESCs (H9) [1]; [4],increased mesoderm induction
same,Mesodermal cells that failed to become cardiac myocytes,Human ESCs (H9) [2]; [4],86%
"CC(C=CC1=C(C)CCCC1(C)C)=CC=CC(C)=CC(=O)O [RA, 3,7-dimethyl-9-(2,6,6-trimethylcyclohexen-1-yl)nona-2,4,6,8-tetraenoic acid]",Generation of mesoderm lineage,Human ESCs (H9) [1]; early activation of RA,failed to generate mesoderm lineage
same,cTnT+ population,Human ESCs (H9) [2]; late (day 6-9) activation of RA (Late-RA),> 90%
same,First heart field marker HCN4 transcript and protein levels,Human ESCs (H9) [3]; Late-RA cardiomyocytes,higher
same,First heart field marker NKX2.5 transcript and protein levels,Human ESCs (H9) [3]; Late-RA cardiomyocytes,higher
same,First heart field marker TBX5 transcript and protein levels,Human ESCs (H9) [3]; Late-RA cardiomyocytes,higher
same,Atrial marker CoupTFII expression,Human ESCs (H9) [3]; [5],down-regulated
same,Second heart field marker FGF8 expression,Human ESCs (H9) [3]; [5],downregulated
same,Second heart field marker FGF10 expression,Human ESCs (H9) [3]; [5],downregulated
same,Second heart field marker ISL1 expression,Human ESCs (H9) [3]; [5],downregulated
same,Ventricular marker HRT2 expression,Human ESCs (H9) [3]; [5],up-regulated
same,Ventricular marker IRX4 expression,Human ESCs (H9) [3]; [5],up-regulated
same,Cell subtype specified,"hESCs; AFB+RA protocol, RA during day 5-8, no early RA inhibitor",specified atria-like subtypes
same,Cell subtype specified,"hESCs; Ri+AFB+RA protocol, RA during day 5-8 after Ri day 0-1",specified first heart field (FHF) derived left ventricular-like cell subtypes
B1,Effect on cardiac lineage cells,hESCs; Noggin treatment during day 3-5,expanded more cardiac lineage cells
